Assay results reported in ChEMBL document CHEMBL1140311, “Design and synthesis of new nonsteroidal glucocorticoid modulators through application of an "agreement docking" method” (J Med Chem, 2005).

How the values were obtained:
[1] = Binding affinity for glucocorticoid receptor
Glucocorticoid receptor [2] = molecular target: T1, Glucocorticoid receptor (Homo sapiens, UniProt P04150); assay: Antagonist activity for Glucocorticoid receptor in MMTV transactivation assay in human A549 lung epithelial cells at 10 uM; assay type: functional, cell-based
T1 sequence (P04150 whole entry): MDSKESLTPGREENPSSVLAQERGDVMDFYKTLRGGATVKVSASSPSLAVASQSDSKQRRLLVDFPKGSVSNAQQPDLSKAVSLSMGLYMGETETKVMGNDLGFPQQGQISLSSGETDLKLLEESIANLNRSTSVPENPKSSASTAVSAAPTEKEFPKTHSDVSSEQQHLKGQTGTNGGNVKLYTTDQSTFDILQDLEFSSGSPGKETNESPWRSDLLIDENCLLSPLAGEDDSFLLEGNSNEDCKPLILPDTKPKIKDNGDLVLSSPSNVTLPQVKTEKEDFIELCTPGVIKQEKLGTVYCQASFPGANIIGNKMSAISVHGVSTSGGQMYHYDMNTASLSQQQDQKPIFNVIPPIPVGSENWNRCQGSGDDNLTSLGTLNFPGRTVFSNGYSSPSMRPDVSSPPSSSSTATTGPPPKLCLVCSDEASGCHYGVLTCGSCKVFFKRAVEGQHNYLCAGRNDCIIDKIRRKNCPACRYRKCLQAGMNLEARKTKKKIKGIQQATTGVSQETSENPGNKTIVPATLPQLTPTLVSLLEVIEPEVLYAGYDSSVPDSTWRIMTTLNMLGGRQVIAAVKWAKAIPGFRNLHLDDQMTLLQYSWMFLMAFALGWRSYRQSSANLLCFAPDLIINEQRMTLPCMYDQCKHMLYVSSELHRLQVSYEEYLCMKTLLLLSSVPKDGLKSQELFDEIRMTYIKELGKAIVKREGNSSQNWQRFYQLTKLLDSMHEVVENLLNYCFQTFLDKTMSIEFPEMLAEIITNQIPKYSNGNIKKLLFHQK

[3] = molecular target: T2, Glucocorticoid receptor (Homo sapiens) (UniProt P04150); assay: Glucocorticoid receptor mediated transrepression of NFkB reporter gene in human A549 lung epithelial cells at 10 uM; assay type: functional, cell-based
T2 sequence (whole entry): T1 sequence (P04150 whole entry)

Glucocorticoid receptor [4] = molecular target: T1, Glucocorticoid receptor; assay: Glucocorticoid receptor mediated transrepression of NFkB reporter gene in human A549 lung epithelial cells; assay type: functional, cell-based

Log IC50 [1] | IC50 (Glucocorticoid receptor [2]) [nM] | Max inhibition [3] [%] | IC50 (Glucocorticoid receptor [4]) [nM] | SMILES
-8.08 | 562 |  |  | Cc1noc(=O)c2ccc(NC(=O)C(O)(CC3CCCc4ccccc43)C(F)(F)F)cc12 (stereo in doubt; 9e (D1E1)) [listing 1 of 2 here]
 |  | 60 |  | Cc1noc(=O)c2ccc(NC(=O)C(O)(CC3CCCCc4ccccc43)C(F)(F)F)cc12 (stereo in doubt; 15a (D1E2)) [listing 1 of 2 here]
 |  | 24 |  | Cc1noc(=O)c2ccc(NC(=O)C(O)(CC3CCCCc4ccccc43)C(F)(F)F)cc12 (stereo in doubt; 15b (D2E1)) [listing 1 of 2 here]
-8.57 | 708 |  | 145 | Cc1noc(=O)c2ccc(NC(=O)C(O)(CC3CCCCc4ccccc43)C(F)(F)F)cc12 (stereo in doubt; 15a (D1E2)) [listing 2 of 2 here]
-8.1 |  |  |  | C[C@@H]1C[C@H]2[C@@H]3CCC4=CC(=O)C=C[C@]4(C)[C@@]3(F)[C@@H](O)C[C@]2(C)[C@@]1(O)C(=O)CO [DEXAMETHASONE]
-7.75 | 1000 |  |  | Cc1noc(=O)c2ccc(NC(=O)C(O)(CC3CCCCc4ccccc43)C(F)(F)F)cc12 (stereo in doubt; 15b (D2E1)) [listing 2 of 2 here]
 |  | 51 |  | Cc1noc(=O)c2ccc(NC(=O)C(O)(CC3CCCc4ccccc43)C(F)(F)F)cc12 (stereo in doubt; 9e (D1E1)) [listing 2 of 2 here]
-7.81 | 4790 | 73 |  | Cc1noc(=O)c2ccc(NC(=O)C(O)(CC3CCc4ccccc43)C(F)(F)F)cc12 (configuration not stated)
 |  | 23 |  | Cc1noc(=O)c2ccc(NC(=O)C(O)(CC3CCCc4ccccc43)C(F)(F)F)cc12 (stereo in doubt; 9d (D2E2)) [listing 1 of 2 here]
-7.15 | 3890 |  |  | Cc1noc(=O)c2ccc(NC(=O)C(O)(CC3CCCc4ccccc43)C(F)(F)F)cc12 (stereo in doubt; 9d (D2E2)) [listing 2 of 2 here]
